Converted amounts (≈) assume the structure as drawn. “Also recorded” adds a separate entry of the source.
Key:
[1] = tested on: human rhinovirus serotypes; assay type: cell-based
polio-2 virus = assay: microbe, parasite or virus in culture; assay type: cell-based; details: read-out: MIC vs. polio-2 virus
poliovirus [2] = assay type: in vivo, mice; details: parenteral medication
poliovirus [3] = assay: animal or person; assay type: in vivo, mice
Echo-11 = assay: microbe, parasite or virus in culture; assay type: cell-based; details: read-out: MIC vs. Echo-11
[4] = tested on: picornaviruses and enteroviruses; assay type: cell-based
rhinovirus Type 2 = assay: microbe, parasite or virus in culture; assay type: cell-based; details: for MIC: Enterovirus, read-out: MIC vs. rhinovirus Type 2 in vitro
Echo-9 = assay: In vitro MIC against Echo-9; assay type: cell-based
Polio-3 = assay: microbe, parasite or virus in culture; assay type: cell-based; details: read-out: MIC vs. Polio-3

Compound	MIC (rhinovirus Type 2) [µg/mL]	also measured
COc1ccc(OCCCCCCCc2cc(C)no2)c(Cl)c1 [Example 2, 5-[7-(2-Chloro-4-methoxyphenoxy)heptyl]-3-methylisoxazole]		human rhinovirus serotypes against which active [1]: 24 of 27; most common human rhinovirus serotypes against which active [1]: six of the seven; MIC (polio-2 virus): 0.15 µg/mL (≈ 0.444 µM); challenge doses of poliovirus at which death was prevented (poliovirus [2]; mice): ≤ 200 LD50; prevention of death in mice infected with poliovirus (poliovirus [2]; challenge doses as high as 200 LD50): prevented death; minimal effective dose (poliovirus [3]; Enterovirus C, in Mus musculus, po, 336 h, read-out: minimal inhibitory dose): 31 mg/kg; in vivo activity against poliovirus infections in mice (poliovirus [3]): active in vivo; in vivo activity against poliovirus infections in mice (poliovirus [3]; listed as 5-[7-(2-chloro-4-methoxyphenoxy)heptyl]-3-methylisoxazole): in vivo activity against poliovirus infections in mice; MIC (Echo-11): 0.04 µg/mL (≈ 0.118 µM); in vitro activity against picornaviruses and enteroviruses [4]: in vitro activity against a variety of picornaviruses and enteroviruses; also recorded: active against other picornaviruses and enterviruses; times as active in vitro against rhinovirus Type 2 as the corresponding 2-chloro-4-methoxyphenoxy compounds of U.S. Pat. No. 4,268,678 (rhinovirus Type 2): at least 15 times; MIC (Echo-9): 0.15 µg/mL (≈ 0.444 µM); MIC (Polio-3): 0.08 µg/mL (≈ 0.237 µM)
COc1ccc(OCCCCCCc2cc(C)no2)c(Cl)c1 [Example 3, 5-[6-(2-Chloro-4-methoxyphenoxy)hexyl]-3-methylisoxazole]	0.8 (≈ 2.47 µM)	
COc1ccc(OCCCCCc2cc(C)no2)c(Cl)c1 [Example 4, 5-[5-(2-Chloro-4-methoxyphenoxy)pentyl]-3-methylisoxazole]	0.4 (≈ 1.29 µM)	
Cc1cc(CCCCCCCOc2ccc(C#N)cc2)on1 [Example 5, 5-[7-(4-Cyanophenoxy)heptyl]-3-methylisoxazole]		activity vs. rhinovirus Type 2 in vitro (rhinovirus Type 2): inactive
Cc1cc(CCCCCCOc2ccc(C#N)cc2)on1 [Example 6, 5-[6-(4-Cyanophenoxy)hexyl]-3-methylisoxazole]	3.1 (≈ 10.9 µM)	
Cc1cc(CCCCCOc2ccc(C#N)cc2)on1 [Example 7, 5-[5-(4-Cyanophenoxy)pentyl]-3-methylisoxazole]		activity vs. rhinovirus Type 2 in vitro (rhinovirus Type 2): inactive
Cc1cc(CCCCCCCOc2ccc(C(=O)OC(C)(C)C)cc2)on1 [Example 8, 5-[7-(4-Tertiary-butyloxycarbonylphenoxy)heptyl]-3-methylisoxazole]	6.2 (≈ 16.6 µM)	
Cc1cc(CCCCCCCCOc2ccc(C#N)cc2)on1 [Example 10, 5-[8-(4-Cyanophenoxy)octyl]-3-methylisoxazole]		activity vs. rhinovirus Type 2 in vitro (rhinovirus Type 2): inactive
Cc1cc(CCCCCCCOc2ccc(OC(C)C)cc2)on1 [Example 11, 3-Methyl-5-[7-(4-isopropoxyphenoxy)heptyl]isoxazole]	0.65 (≈ 1.96 µM)	
Cc1cc(CCCCCCCOc2ccc(C(C)C)cc2)on1 [Example 12, 3-Methyl-5-[7-(4-isopropylphenoxy)heptyl]isoxazole]	0.98 (≈ 3.11 µM)	
Cc1cc(CCCCCCCOc2ccc(Cl)cc2)on1 [Example 14, 3-Methyl-5-[7-(4-chlorophenoxy)heptyl]isoxazole]	1.5 (≈ 4.87 µM)	MIC (polio-2 virus): 0.4 µg/mL (≈ 1.3 µM)
Cc1ccc(OCCCCCCCc2cc(C)no2)c(Cl)c1 [Example 15, 5-[7-(2-Chloro-4-methylphenoxy)heptyl]-3-methylisoxazole]	1.2 (≈ 3.73 µM)	MIC (polio-2 virus): 0.82 µg/mL (≈ 2.55 µM)
Cc1cc(CCCCCCCOc2ccc(C(=O)O)cc2)on1 [Example 16, 5-[7-(4-Carboxyphenoxy)heptyl]-3-methylisoxazole]	10 (≈ 31.5 µM)	
Cc1cc(CCCCCOc2ccc(C(=O)O)cc2)on1 [Example 17, 5-[5-(4-Carboxyphenoxy)pentyl]-3-methylisoxazole]	12.5 (≈ 43.2 µM)	
Cc1cc(CCCCCCCOc2cccc(C(=O)O)c2)on1 [Example 19, 5-[7-(3-Carboxyphenoxy)heptyl]-3-methylisoxazole]		activity vs. rhinovirus Type 2 in vitro (rhinovirus Type 2): inactive
Cc1cc(CCCCCCCCOc2ccc(C(=O)O)cc2)on1 [Example 20, 5-[8-(4-Carboxyphenoxy)octyl]-3-methylisoxazole]		activity vs. rhinovirus Type 2 in vitro (rhinovirus Type 2): inactive
CCOC(=O)c1ccc(OCCCCCCCc2cc(C)no2)cc1 [Example 22, 5-[7-(4-Ethoxycarbonylphenoxy)heptyl]-3-methylisoxazole]	0.025 (≈ 0.0724 µM)	
CCOC(=O)c1ccc(OCCCCCc2cc(C)no2)cc1 [Example 23, 5-[5-(4-Ethoxycarbonylphenoxy)pentyl]-3-methylisoxazole]	0.015 (≈ 0.0473 µM)	

Compound	MIC (rhinovirus Type 2) [µg/mL]	also measured
CCOC(=O)c1ccc(OCCCCCCc2cc(C)no2)cc1 [Example 24, 5-[6-(4-Ethoxycarbonylphenoxy)hexyl]-3-methylisoxazole]	0.025 (≈ 0.0754 µM)	
CCOC(=O)c1ccc(OCCCCCCCCc2cc(C)no2)cc1 [Example 25, 5-[8-(4-Ethoxycarbonylphenoxy)octyl]-3-methylisoxazole]	0.05 (≈ 0.139 µM)	
CCOC(=O)c1cccc(OCCCCCCCc2cc(C)no2)c1 [Example 26, 5-[7-(3-Ethoxycarbonylphenoxy)heptyl]-3-methylisoxazole]	1.6 (≈ 4.63 µM)	
Cc1cc(CCCCCCCOc2ccc(C(=O)OC(C)C)cc2)on1 [Example 27, 5-[7-(4-Isopropyloxycarbonylphenoxy)heptyl]-3-methylisoxazole]	0.23 (≈ 0.64 µM)	
CCCOC(=O)c1ccc(OCCCCCCCc2cc(C)no2)cc1 [Example 28, 5-[7-(4-Propyloxycarbonylphenoxy)heptyl]-3-methylisoxazole]	0.07 (≈ 0.195 µM)	
COC(=O)c1ccc(OCCCCCCCc2cc(C)no2)cc1 [Example 29, 5-[7-(4-Methoxycarbonylphenoxy)heptyl]-3-methylisoxazole]	3 (≈ 9.05 µM)	
CCOC(=O)c1ccc(OCCCCc2cc(C)no2)cc1 [Example 30, 5-[4-(4-Ethoxycarbonylphenoxy)butyl]-3-methylisoxazole]	3.1 (≈ 10.2 µM)	
CC(=O)c1ccc(OCCCCCCCc2cc(C)no2)cc1 [Example 31, 5-[7-(4-Acetylphenoxy)heptyl]-3-methylisoxazole]	1.6 (≈ 5.07 µM)	
CCC(=O)c1ccc(OCCCCCCCc2cc(C)no2)cc1 [Example 32, 5-[7-(4-Propionylphenoxy)heptyl]-3-methylisoxazole]	1.7 (≈ 5.16 µM)	
Cc1cc(CCCCCCCOc2ccc(C(=O)NN)cc2)on1 [Example 33, 5-[7-(4-Hydrazinocarbonylphenoxy)heptyl]-3-methylisoxazole]	0.64 (≈ 1.93 µM)	
Cc1cc(CCCCCCCOc2ccc(C(N)=O)cc2)on1 [Example 34, 5-[7-(4-Carbamylphenoxy)heptyl]-3-methylisoxazole]		activity vs. rhinovirus Type 2 in vitro (rhinovirus Type 2): not active
Cc1cc(CCCCCCCOc2ccc(C(=O)N(C)C)cc2)on1 [Example 35(b), N,N-dimethyl-4-[7-(3-methyl-5-isoxazolyl)heptyloxy]benzamide]		MIC (polio-2 virus): 2.5 µg/mL (≈ 7.26 µM)
CCC(=NO)c1ccc(OCCCCCCCc2cc(C)no2)cc1 [Example 36, 5-[7-(4-Propionylphenoxy)heptyl]-3-methylisoxazole oxime]	2.6 (≈ 7.55 µM)	MIC (polio-2 virus): 0.2 µg/mL (≈ 0.581 µM)
Cc1cc(CCCCCCCOc2ccc([N+](=O)[O-])cc2)on1 [Example 37(b), 3-methyl-5-[7-(4-nitrophenoxy)heptyl]isoxazole]		MIC (polio-2 virus): 1.5 µg/mL (≈ 4.71 µM)
COc1ccc(OCCCCCCCc2cc(C)no2)c([N+](=O)[O-])c1 [Example 38, 3-Methyl-5-[7-(2-nitro-4-methoxyphenoxy)heptyl]isoxazole]	0.3 (≈ 0.861 µM)	MIC (polio-2 virus): 0.17 µg/mL (≈ 0.488 µM)
Cc1cc(CCCCCCCc2ccc(C#N)cc2)on1 [Example 39(f), 5-[7-(4-Cyanophenyl)heptyl]-3-methylisoxazole]	11.2 (≈ 39.7 µM)	
COc1ccc(OCCCCCc2cc(C)on2)c(Cl)c1 [Example 41, 3-[5-(2-Chloro-4-methoxyphenoxy)pentyl]-5-methylisoxazole]	0.7 (≈ 2.26 µM)	MIC (polio-2 virus): 1.4 µg/mL (≈ 4.52 µM)

Reference: US4451476A (priority 1983, dated 1984)
